This note sets out measurements from patent US7642058B2, “Method and apparatus for characterization of interactions” (GE Healthcare Bio-Sciences AB, priority 2003, dated 2010).

pKd: −log10 of the molar value.

Assay [1] has as its target anti-maltose antibody. Put plainly: Conventional SPR affinity assay, maltose on immobilized anti-maltose antibody. Type of assay: binding. Conditions: 12 injections 0 to 1500 μM, 25° C. As for the experimental part:
In order to compare the results obtained with pulse injections to results obtained with the conventional method, 12 maltose injections of concentrations ranging from 0 to 1500 μM were performed. The injection time was 15 sec. Data was evaluated from a Req versus C plot using the BIAevaluation software.

Assay [2] addresses anti-maltose antibody. Nature of the assay: Pulse injection SPR steady state affinity, maltose on immobilized anti-maltose antibody. Conditions: read-out: average KD; pulse injection method, 25° C., initial concentrations 0.05 and 0.1 mM.
Method: Roughly the same amount of another antibody, anti-AFP, was immobilized in a reference flowcell in order to minimise errors in reference subtraction due to the high immobilization level. These two proteins were immobilized using the “amine coupling” procedure as follows: HBS-EP was used as running buffer with a constant flow rate of 5 μl/min. After activation for 12 min. with EDC, target (anti-maltose or anti-AFP, 50 μg/ml in 10 mM sodium acetate, pH 5.0) was injected for 7 min., followed by a 12-min. deactivation. Immobilization and all measurements on the surface were performed at 25° C.
Samples of different initial concentrations (0.05 and 0.1 mM) were injected over the surface. The association and dissociation phases of each pulse were 12 seconds. […] Each experiment started with a blank run, i.e., a series of pulses of running buffer alone. The concentration of the first pulse, C1, was assumed to be equal to the concentration in the vial. […]
Response levels were obtained by taking the average of 10 data points at equilibrium. […] The constant multi-concentration pulse series were evaluated with a non-linearly fitted Req versus C plot, whereby KA, KD and Rmax values were obtained directly from the software.
A further assay has as its target HSA (Homo sapiens, UniProt P02768).

Chain of HSA (P02768 25-609 limits assumed): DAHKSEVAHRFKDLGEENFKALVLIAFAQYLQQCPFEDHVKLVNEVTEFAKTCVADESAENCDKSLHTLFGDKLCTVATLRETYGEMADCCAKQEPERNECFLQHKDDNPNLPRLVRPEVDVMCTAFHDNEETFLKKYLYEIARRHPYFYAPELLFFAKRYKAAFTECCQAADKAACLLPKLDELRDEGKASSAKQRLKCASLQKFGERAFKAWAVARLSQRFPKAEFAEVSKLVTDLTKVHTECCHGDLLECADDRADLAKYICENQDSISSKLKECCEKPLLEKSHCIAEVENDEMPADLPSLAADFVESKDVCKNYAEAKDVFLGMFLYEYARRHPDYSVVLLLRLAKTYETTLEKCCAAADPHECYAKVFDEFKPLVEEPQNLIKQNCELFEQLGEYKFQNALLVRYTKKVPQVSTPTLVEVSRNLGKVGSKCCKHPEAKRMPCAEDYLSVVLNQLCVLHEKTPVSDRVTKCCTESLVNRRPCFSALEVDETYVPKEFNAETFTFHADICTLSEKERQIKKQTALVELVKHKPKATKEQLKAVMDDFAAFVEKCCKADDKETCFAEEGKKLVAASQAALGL

By pKd is commonly meant −log10 of the Kd, conventionally taken in molar units. Consider `OC[C@H]1O[C@H](O[C@H]2[C@H](O)[C@@H](O)C(O)O[C@@H]2CO)[C@H](O)[C@@H](O)[C@@H]1O` (mixture of isomers) [maltose], for which the pKd on anti-maltose antibody [1] is 2.07; on anti-maltose antibody [2], 2.05. With `C[C@H]1O[C@@H](O[C@H]2[C@@H](O)C[C@H](O[C@H]3[C@@H](O)C[C@H](O[C@H]4CC[C@@]5(C)[C@H](CC[C@@H]6[C@@H]5CC[C@]5(C)[C@@H](C7=CC(=O)OC7)CC[C@]65O)C4)O[C@@H]3C)O[C@@H]2C)C[C@H](O)[C@@H]1O` [Digitoxin, digitoxin], the “site competition on HSA, pair digitoxin and warfarin” value at HSA is recorded as “non-competitive binders”.
